Measurements taken from patent US20250235465A1, “USE OF SODIUM TRANS-[TETRACHLORIDOBIS(1H-INDAZOLE)RUTHENATE(III)] TO AMELIORATE PROTEASOME INHIBITOR RESISTANCE” (Bold Therapeutics Inc., priority 2021, published 2025).
Like-named read-outs stand apart in the source and are kept apart here.

How the values were obtained:
[1] = tested on: OPM2 PR (pomalidomide resistant); settings: read-out: BOLD-100 IC50, 24 hours, Example 2, FIG. 2B
Method: (§1) The luminescent readings obtained in the assay were used to measure the percentage of cell death following treatment with increasing doses of BOLD-100 for 24 hours. Each cell line was treated in triplicate and the average cell death was used to calculate the IC50 or […] inhibitory concentration dose in these cell lines using a nonlinear regression fit.
(§2) Proteasome inhibitors (PI) and immunomodulatory drugs (IMiD) are used as standards of care treatments in MM disease in the clinic. […] Specifically, the MM.1S cell line was developed to acquire partial resistance to proteasome inhibitors bortezomib (MM.1S BR) and carfilzomib (MM.1S CR) by treating the MM.1S cell line with increasing doses of the drugs for about 6 months and the OPM2 cell line was developed to acquire partial resistance to IMiD lenalidomide (OPM2 LR) and pomalidomide (OPM2 PR) by treating the OPM2 cell line with increasing doses of the drugs for about 6 months.

[2] = tested on: OPM2 LR (lenalidomide resistant); settings: 24 hours
Method: as §1, §2

OPM2 = settings: OPM2, 24 hours
Method: as §1, §2

MM.1S = tested on: MM.1S
Method: as §1, §2

[3] = tested on: MM.1S CR in presence of HS-5; settings: MM.1S CR in co-culture with HS-5, FIG. 5
Method: (§3) Bone marrow stromal cells are understood to provide a protective environment for cells, insulating bone marrow cells from drug effects. […] To do this, a co-culture assay was carried out, in which MM cells were grown in co-culture with a bone marrow stromal cell line HS-5. MM cell lines adhere to stromal cells in culture and the stromal cells can provide a protective effect against drug induced apoptosis/growth inhibition. Dose response curves were generated for the PI-sensitive cell line MM.1 S, and the two PI resistant lines MM.1S BR and MM.1S CR in presence of HS-5 by standard CTG assay.

[4] = tested on: MM.1S in presence of HS-5; settings: MM.1S in co-culture with HS-5, FIG. 5
Method: as §3

[5] = tested on: bone marrow cell line HS-5; settings: bone marrow stromal cell line HS-5, FIG. 5
Method: as §3

[6] = tested on: MM.1S BR in presence of HS-5; settings: MM.1S BR in co-culture with HS-5, FIG. 5
Method: as §3

MOLP8 = settings: MOLP8, 24 hours, Table 1
Method: as §1

XG-1 = settings: XG-1, 24 hours, Table 1
Method: as §1

H1112 = settings: H1112, 24 hours, Table 1
Method: as §1

JJN3 = settings: JJN3, 24 hours, Table 1
Method: as §1

KMS27 = settings: KMS27, 24 hours, Table 1
Method: as §1

XG-2 = settings: XG-2, 24 hours, Table 1
Method: as §1

[7] = tested on: MM.1S BR (bortezomib resistant)
From the text: as §2

[8] = read-out: BOLD-100 IC50, 24 hours, Example 2, FIG. 2A

[Cl][Ru]([Cl])([Cl])[Cl].[Na+].c1ccc2[nH]ncc2c1.c1ccc2[nH]ncc2c1 [BOLD-100, Sodium trans-[tetrachloridobis(1H-indazole)ruthenate(III)]]
IC50 [1]: 51 µM | sensitivity to BOLD-100 compared to parental OPM2 ([2]; FIG. 2B): higher sensitivity | IC50 ([2]; Table 1): 108 µM | IC50 (OPM2; Table 1): 130 µM | IC50 (OPM2; read-out: BOLD-100 IC50, Example 2, FIG. 2B): 120 µM | IC50 (MM.1S; 24 hours, Table 1): 106 µM | IC50 (MM.1S; [8]): 83 µM | impact on viability [3]: negatively impact the viability | impact on viability [4]: negatively impact the viability | impact on viability [5]: minimal impact | impact on viability [6]: negatively impact the viability | IC50 (MOLP8): 115 µM | IC50 (XG-1): 49 µM | IC50 (H1112): 72 µM | IC50 (JJN3): Not reached | IC50 (KMS27): 128 µM | IC50 (XG-2): 54 µM | IC50 [7, 8]: 23 µM | IC50 ([7]; read-out: BOLD-100 IC50, 24 hours, FIG. 2A legend): 23 µM
